27 molecules from patent US20210380595A1 (ARAXES PHARMA LLC, priority 2018, published 2021) can be followed below.

In one assay the target is T1, KRAS G12C 1-169, his-tagged protein, GDP-loaded (Homo sapiens, UniProt P01116, G12C).
T1 construct: KRAS G12C 1-169, his-tagged protein, GDP-loaded
As to the kind of experiment: Biochemical assay: covalent modification of KRAS G12C measured by mass spectrometry (RapidFire/TOF or Q-Exactive). Also: time not given here. In kind it is binding. Particulars: tested at 32 μM. A digest of the protocol: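 GDP-loaded KRAS G12C 1-169 (his-tagged, 2 μM or 0.5 μM in 20 mM Hepes, 150 mM NaCl, 1 mM MgCl2) reacted with compound at 32 μM or 8 μM final, then quenched with formic acid. Intact-protein LC-MS (RapidFire/TOF or Q-Exactive) with charge-envelope deconvolution; % modification from modified vs unmodified peak intensities.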
For the molecule `C=CC(=O)N1CC2(CCN(c3ccc(Cl)c(-c4c(C)ccc5[nH]ncc45)c3C#N)CC2)C1` [Compound I-85, 6-(2-acryloyl-2,7-diazaspiro[3.5]nonan-7-yl)-3-chloro-2-(5-methyl-1H-indazol-4-yl)benzonitrile], the Bind % result was “+ (+ indicates binding activity greater than 0% and up to 50%)”. `C=CC(=O)N1CCC2(CCN(c3ccc(F)c(-c4c(C)ccc5[nH]ncc45)c3C#N)CC2)C1` [Compound I-94, 6-(2-acryloyl-2,8-diazaspiro[4.5]decan-8-yl)-3-fluoro-2-(5-methyl-1H-indazol-4-yl)benzonitrile]: the Bind % entry is “+ (+ indicates binding activity greater than 0% and up to 50%)”. Take `C=CC(=O)N1CCC2(C1)CN(c1ccc(F)c(-c3c(C)ccc4[nH]ncc34)c1C#N)C2` [Compound I-95, 6-(6-acryloyl-2,6-diazaspiro[3.4]octan-2-yl)-3-fluoro-2-(5-methyl-1H-indazol-4-yl)benzonitrile]: the Bind % entry was “+ (+ indicates binding activity greater than 0% and up to 50%)”. Take `C=CC(=O)N1CCC2(CC1)CN(c1ccc(F)c(-c3c(C)ccc4[nH]ncc34)c1C#N)C2` [Compound I-96, 6-(7-acryloyl-2,7-diazaspiro[3.5]nonan-2-yl)-3-fluoro-2-(5-methyl-1H-indazol-4-yl)benzonitrile]: the Bind % entry was “+ (+ indicates binding activity greater than 0% and up to 50%)”. With `C=CC(=O)N1CC2(CCN(c3cc(N4CCOCC4)c(F)c(-c4c(C)ccc5cnn(C)c45)c3C#N)CC2)C1` [Compound I-97, 6-(2-acryloyl-2,7-diazaspiro[3.5]nonan-7-yl)-2-(1,6-dimethyl-1H-indazol-7-yl)-3-fluoro-4-morpholino-benzonitrile], the Bind % entry is “+ (+ indicates binding activity greater than 0% and up to 50%)”. Turning to `C=CC(=O)N1CC2(CCN(c3ccc(F)c(-c4c(C)ccc5[nH]ncc45)c3)C2)C1` [Compound I-99], the Bind % result is “++ (++ indicates binding activity from 50 to 75%)”. Take `C=CC(=O)N1CC2(CCN(c3ccc(OC4CCN(C)CC4)c(-c4c(C)ccc5[nH]ncc45)c3C#N)CC2)C1` [Compound I-100, 6-(2-acryloyl-2,7-diazaspiro[3.5]nonan-7-yl)-2-(5-methyl-1H-indazol-4-yl)-3-((1-methylpiperidin-4-yl)oxy)benzo-nitrile]: the Bind % result is “+ (+ indicates binding activity greater than 0% and up to 50%)”. As for `C=CC(=O)N1CC2(CCN(c3ccc(C#N)c(-c4c(C)ccc5[nH]ncc45)c3)C2)C1` [Compound I-101, 4-(2-acryloyl-2,6-diazaspiro[3.4]octan-6-yl)-2-(5-methyl-1H-indazol-4-yl)benzonitrile], the Bind % result was “+ (+ indicates binding activity greater than 0% and up to 50%)”.

Take `C=CC(=O)N1CC2(CCN(c3ccc(F)c(-c4c(C)ccc5[nH]ncc45)c3)CC2)C1` [Compound I-102, 1-(7-(4-fluoro-3-(5-methyl-1H-indazol-4-yl)phenyl)-2,7-diazaspiro[3.5]nonan-2-yl)prop-2-en-1-one]: the Bind % entry was “+ (+ indicates binding activity greater than 0% and up to 50%)”. With `C=CC(=O)N1CC2(CCN(c3cc(OCCCN(C)C)c(OC)c(-c4c(C)ccc5[nH]ncc45)c3)CC2)C1` [Compound I-103, 1-(7-(3-(3-(dimethylamino)propoxy)-4-methoxy-5-(5-methyl-1H-indazol-4-yl)phenyl)-2,7-diazaspiro[3.5]nonan-2-yl)prop-2-en-1-one], the Bind % entry is listed as “++ (++ indicates binding activity from 50 to 75%)”. Same read-out and setting: for `C=CC(=O)N1CC2(CCN(c3cc(OCCCN(C)C)c(OC)c(-c4c(C)ccc5cnn(C)c45)c3C#N)CC2)C1` [Compound I-104] the value was “+ (+ indicates binding activity greater than 0% and up to 50%)”; for `C=CC(=O)N1CC2(CCN(c3ccc(C#N)c(-c4c(C)ccc5[nH]ncc45)c3)CC2)C1` [Compound I-105, 4-(2-acryloyl-2,7-diazaspiro[3.5]nonan-7-yl)-2-(5-methyl-1H-indazol-4-yl)benzonitrile], “+ (+ indicates binding activity greater than 0% and up to 50%)”; for `C=CC(=O)N1CC2(CCN(c3ccc(F)c(-c4c(C)ccc5[nH]ncc45)c3C#N)CC2)C1` [Compound I-106, 6-(2-acryloyl-2,7-diazaspiro[3.5]nonan-7-yl)-3-fluoro-2-(5-methyl-1H-indazol-4-yl)benzonitrile], “+ (+ indicates binding activity greater than 0% and up to 50%)”. `C=CC(=O)N1CC2(CCN(c3cc(OCc4ccccn4)cc(-c4c(C)ccc5[nH]ncc45)c3)CC2)C1` [Compound I-107, 1-(7-(3-(5-methyl-1H-indazol-4-yl)-5-(pyridin-2-ylmethoxy)phenyl)-2,7-diazaspiro[3.5]nonan-2-yl)prop-2-en-1-one]: the Bind % result is “+ (+ indicates binding activity greater than 0% and up to 50%)”. Regarding `C=CC(=O)N1CC2(CCN(c3cc(N4CCOCC4)cc(-c4c(C)ccc5[nH]ncc45)c3C#N)CC2)C1` [Compound I-108, 2-(2-acryloyl-2,7-diazaspiro[3.5]nonan-7-yl)-6-(5-methyl-1H-indazol-4-yl)-4-morpholino-benzonitrile], the Bind % entry is “+ (+ indicates binding activity greater than 0% and up to 50%)”.

Take `C=CC(=O)N1CC2(CCN(c3ccc(OC4CCN(C)CC4)c(-c4c(C)ccc5cnn(C)c45)c3C#N)CC2)C1` [Compound I-109, 6-(2-acryloyl-2,7-diazaspiro[3.5]nonan-7-yl)-2-(1,6-dimethyl-1H-indazol-7-yl)-3-((1-methylpiperidin-4-yl)oxy)benzo-nitrile]: the Bind % result was “+ (+ indicates binding activity greater than 0% and up to 50%)”. As for `C=CC(=O)N1CC2(CCN(c3ccc(F)c(-c4c(C)ccc5[nH]ncc45)c3C#N)CC2)C1` [Compound I-111, 6-(2-acryloyl-2,7-diazaspiro[3.5]nonan-7-yl)-3-fluoro-2-(5-methyl-1H-indazol-4-yl)benzonitrile], the Bind % entry is “+ (+ indicates binding activity greater than 0% and up to 50%)”.

In the case of `C=CC(=O)N1CC2(CCN(c3ccc(C(F)(F)F)c(-c4c(C)ccc5[nH]ncc45)c3C#N)CC2)C1` [Compound I-112, 6-(2-acryloyl-2,7-diazaspiro[3.5]nonan-7-yl)-2-(5-methyl-1H-indazol-4-yl)-3-(trifluoromethyl) benzonitrile], the Bind % entry was “+ (+ indicates binding activity greater than 0% and up to 50%)”. Regarding `C=CC(=O)N1CC2(CCN(c3cc(N4CC(N(C)C)C4)c(F)c(-c4c(C)ccc5[nH]ncc45)c3C#N)CC2)C1` [Compound I-114, 6-(2-acryloyl-2,7-diazaspiro[3.5]nonan-7-yl)-4-(3-(dimethylamino)azetidin-1-yl)-3-fluoro-2-(5-methyl-1H-indazol-4-yl)benzonitrile], the Bind % entry was “+ (+ indicates binding activity greater than 0% and up to 50%)”. Consider `C=CC(=O)N1CC2(CCN(c3ccc(Nc4ccccc4)c(-c4c(C)ccc5[nH]ncc45)c3C#N)CC2)C1` [Compound I-115, 6-(2-acryloyl-2,7-diazaspiro[3.5]nonan-7-yl)-2-(5-methyl-1H-indazol-4-yl)-3-(phenylamino) benzonitrile], for which the Bind % entry is “+ (+ indicates binding activity greater than 0% and up to 50%)”.

Consider `C=CC(=O)N1CC2(CCN(c3cccc(-c4c(C)ccc5[nH]ncc45)c3C#N)CC2)C1` [Compound I-116, 2-(2-acryloyl-2,7-diazaspiro[3.5]nonan-7-yl)-6-(5-methyl-1H-indazol-4-yl)benzonitrile], for which the Bind % entry is “+ (+ indicates binding activity greater than 0% and up to 50%)”.

As for `C=CC(=O)N1CC2(CCN(c3cc(NCc4ccccn4)c(F)c(-c4c(C)ccc5[nH]ncc45)c3C#N)CC2)C1` [Compound I-117, 6-(2-acryloyl-2,7-diazaspiro[3.5]nonan-7-yl)-3-fluoro-2-(5-methyl-1H-indazol-4-yl)-4-((pyridin-2-ylmethyl)amino) benzonitrile], the Bind % result is “++ (++ indicates binding activity from 50 to 75%)”. `C=CC(=O)N1CC2(CCN(c3ccc(F)c(-c4c(C)ccc5[nH]ncc45)c3Cl)CC2)C1` [Compound I-118, 1-(7-(2-chloro-4-fluoro-3-(5-methyl-1H-indazol-4-yl)phenyl)-2,7-diazaspiro[3.5]nonan-2-yl)prop-2-en-1-one]: the Bind % entry is “+ (+ indicates binding activity greater than 0% and up to 50%)”. Take `C=CC(=O)N1CC2(CCN(c3cc(OCCCN(C)C)c(F)c(-c4c(C)ccc5cnn(C)c45)c3C#N)CC2)C1` [Compound I-119, 6-(2-acryloyl-2,7-diazaspiro[3.5]nonan-7-yl)-2-(1,6-dimethyl-1H-indazol-7-yl)-4-(3-(dimethylamino)propoxy)-3-fluorobenzo-nitrile]: the Bind % entry is “+ (+ indicates binding activity greater than 0% and up to 50%)”.

The assay is the same for the next values; noted with them: tested at a concentration of 8 μM.
Take `C=CC(=O)N1CC2(CCN(c3ccc(Cl)c(-c4c(C)ccc5[nH]ncc45)c3C#N)C2)C1` [Compound I-98, 6-(2-acryloyl-2,6-diazaspiro[3.4]octan-6-yl)-3-chloro-2-(5-methyl-1H-indazol-4-yl)benzonitrile]: the Bind % entry is reported as “++ (++ indicates binding activity from 50 to 75%)”. As for `C=CC(=O)N1CC2(C1)CN(c1ccc(F)c(-c3c(C)ccc4[nH]ncc34)c1C#N)C2` [Compound I-110, 6-(6-acryloyl-2,6-diazaspiro[3.3]heptan-2-yl)-3-fluoro-2-(5-methyl-1H-indazol-4-yl)benzonitrile], the Bind % entry is “+ (+ indicates binding activity greater than 0% and up to 50%)”. For the molecule `C=CC(=O)N1CC2(CCN(c3cc(OCCCN(C)C)c(F)c(-c4c(C)ccc5[nH]ncc45)c3C#N)CC2)C1` [Compound I-113, 6-(2-acryloyl-2,7-diazaspiro[3.5]nonan-7-yl)-4-(3-(dimethylamino)propoxy)-3-fluoro-2-(5-methyl-1H-indazol-4-yl)benzonitrile], the Bind % result is “+ (+ indicates binding activity greater than 0% and up to 50%)”.
